{
  "source": "patent US6420435B1",
  "about": "“Method for treating gastrointestinal disorders” (priority 1999, dated 2002)",
  "key": {"[1]": {"test_system": "persons suffering from diagnosed peptic ulcers", "assay": "Treatment regimen in persons with diagnosed peptic ulcers", "assay_type": "in vivo, human", "conditions": "1,000 mg dose regimen, had to discontinue", "source_text": "The present invention is particularly useful in alleviating the severity and frequency of gastrointestinal disorders. […] As used herein, “gastrointestinal disorder” shall mean mild/moderate heartburn, stomach acid indigestion, and severe heartburn/GERD."}, "[2]": {"test_system": "participants suffering from mild/moderate heartburn to severe heartburn/GERD", "assay": "Preliminary double-blind placebo study in 13 participants", "assay_type": "in vivo, human", "conditions": "1 capsule with 1 gram of 98% d-limonene, every day/every other day regimens", "experimental": "A preliminary double-blind placebo study was conducted on 13 participants suffering from mild/moderate heartburn to severe heartburn/GERD. Seven participants were administered the product and six were administered a placebo. In the “limonene” group (i.e. 1 capsule containing 1 gram of 98% d-limonene), two participants were administered 1 capsule every day for five days followed by 1 capsule every other day for five days. The remaining “limonene” group participants were administered 1 capsule every other day for 20 days. In the “placebo” group, three participants were administered 1 placebo capsule (i.e. gelatin capsule containing soybean oil) daily for five days, followed by 1 capsule every other day for 5 days. Two participants were administered 1 placebo capsule every other day for 20 days while one participant having severe heartburn was administered 1 placebo capsule twice a day for 5 days, followed by 1 capsule every day for 5 days, followed by 1 capsule as needed. As shown in Table 4 (and FIG. 4), a significant difference in results was obtained between the two groups ([…])."}, "[3]": {"test_system": "adults suffering from chronic heartburn or gastroesophagael reflux disorder (GERD)", "assay": "Initial studies of d-limonene treatment regimen in 19 adults with chronic heartburn or GERD, symptom ratings on a scale of 1-10", "assay_type": "in vivo, human", "conditions": "for % of participants (every day regimen) with symptom rating = 1-2: 1 capsule 1000 mg every day; for % of participants (every other day regimen) with symptom rating = 1-2: 1 capsule 1000 mg every other day; for % of all participants with symptom rating = 1-2: 1000 mg d-limonene capsule every day or every other day; for % of all participants with symptom rating = 1-2 / percentage of participants achieving complete relief of symptoms (rating of 1): all participants", "experimental": "Initial studies of the inventive treatment regimen were conducted at different times on 19 adults suffering from chronic heartburn or gastroesophagael reflux disorder (GERD). […] Thirty-seven (37%) of the total participants in these initial studies were male ranging in age from 42 to 73 years (average age=50 years), while sixty-three (63%) of the participants were female ranging in age from 34 to 70 years (average age=43). All of the participants discontinued using their respective treatments of choice (i.e. over-the-counter (OTC) and/or prescription medications) at least one day prior to beginning the inventive treatment regimen. Prior to beginning the treatment regimen, each participant was asked to rate the frequency and severity of his/her gastrointestinal disorder symptoms on a scale of 1-10. For “severity of symptoms,” 1 corresponded to complete relief of symptoms while 10 corresponded to severe, painful symptoms. A rating of 2 would correspond to mild symptoms. For “frequency of symptoms,” 1 corresponded to complete relief of symptoms while 10 corresponded to daily symptoms.\nEleven of the participants were administered 1 capsule of d-limonene every other day for 20 days. Five of the participants were administered 1 capsule of d-limonene every day for 16 to 20 days. Each capsule contained 1000 mg of d-limonene having a purity of from 98.5% to 99.3%.\nFIG. 3 is a graph illustrating the percentage of all the participants (i.e. those undergoing the every other day regimen and every day regimen) having a severity rating of 1."}, "[4]": {"test_system": "individuals taking limonene", "assay": "Side effects of limonene having at least 98% purity", "assay_type": "in vivo, human", "conditions": "limonene having at least a 98% purity", "source_text": "Any conventional distillation method known by those of ordinary skill in the art for obtaining a highly purified form of d-limonene (about 98% pure) may be employed. Example 3 illustrates one preferred distillation method for removing the majority of contaminants."}, "[5]": {"test_system": "inventor with long history of severe heartburn", "assay": "Inventor's own use of limonene for severe heartburn", "assay_type": "in vivo, human", "conditions": "500 mg to 1000 mg every other day for 8-20 days", "experimental": "Similar results were obtained on another adult taking 1000 mg every other day as well as on participants of studies discussed in more detail in Examples 1-2."}, "[6]": {"assay": "In vitro studies on mechanism of action", "conditions": "suggested mechanism, coating the stomach wall", "source_text": "The present invention is directed to a method for treating gastrointestinal disorders and comprises the oral administration of a therapeutically effective amount of limonene, preferably a purified form of d-limonene (i.e. at least 98%), to a person in need of such treatment. “Limonene” as used herein shall include both d-limonene and 1-limonene. […] The inventor has discovered that oral administration of a therapeutically effective amount of purified, food grade limonene (preferably at least 98% pure d-limonene), taken once daily or once every other day for 2 to 20 days, will alleviate or eliminate entirely the symptoms, both in terms of frequency and severity, of gastrointestinal disorders, such disorders ranging from mild/moderate heartburn and gastric indigestion to severe heartburn or gastro esophageal reflux disorder (GERD)."}},
  "data": [
    {"smiles": "C=C(C)[C@H]1CC=C(C)CC1", "note": "[d-limonene]", "values": [
      {"measurement": "effect on severity of gastrointestinal symptoms in ulcer sufferers", "setting": "[1]", "value": "increase in the severity of gastrointestinal symptoms"},
      {"measurement": "Product vs. Placebo result (percentage of participants, rating criterion not given)", "setting": "[2]; Day 4", "value": 29, "unit": "%"},
      {"measurement": "Product vs. Placebo result (percentage of participants, rating criterion not given)", "setting": "[2]; Day 7", "value": 29, "unit": "%"},
      {"measurement": "Product vs. Placebo result (percentage of participants, rating criterion not given)", "setting": "[2]; Day 9", "value": 71, "unit": "%"},
      {"measurement": "Product vs. Placebo result (percentage of participants, rating criterion not given)", "setting": "[2]; Day 14", "value": 86, "unit": "%"},
      {"measurement": "% of participants (every day regimen) with symptom rating = 1-2", "setting": "[3]; Day 2", "value": 14, "unit": "%"},
      {"measurement": "% of participants (every other day regimen) with symptom rating = 1-2", "setting": "[3]; Day 2", "value": 42, "unit": "%"},
      {"measurement": "% of participants (every day regimen) with symptom rating = 1-2", "setting": "[3]; Day 4", "value": 29, "unit": "%"},
      {"measurement": "% of participants (every other day regimen) with symptom rating = 1-2", "setting": "[3]; Day 4", "value": 42, "unit": "%"},
      {"measurement": "% of all participants with symptom rating = 1-2", "setting": "[3]; Day 4", "value": 32, "unit": "%"},
      {"measurement": "percentage of participants with severity and frequency symptom ratings of 1-2", "setting": "[3]; Day 4, mild/moderate heartburn group", "value": 55, "unit": "%"},
      {"measurement": "percentage of participants with severity and frequency symptom ratings of 1-2", "setting": "[3]; Day 4, severe heartburn/GERD group", "value": 0, "unit": "%"},
      {"measurement": "% of participants (every day regimen) with symptom rating = 1-2", "setting": "[3]; Day 7", "value": 57, "unit": "%"},
      {"measurement": "% of participants (every other day regimen) with symptom rating = 1-2", "setting": "[3]; Day 7", "value": 67, "unit": "%"},
      {"measurement": "% of all participants with symptom rating = 1-2", "setting": "[3]; Day 7", "value": 63, "unit": "%"},
      {"measurement": "percentage of participants with severity and frequency symptom ratings of 1-2", "setting": "[3]; Day 7, mild/moderate heartburn group", "value": 82, "unit": "%"},
      {"measurement": "percentage of participants with severity and frequency symptom ratings of 1-2", "setting": "[3]; Day 7, severe heartburn/GERD group", "value": 38, "unit": "%"},
      {"measurement": "% of participants (every day regimen) with symptom rating = 1-2", "setting": "[3]; Day 9", "value": 71, "unit": "%"},
      {"measurement": "% of participants (every other day regimen) with symptom rating = 1-2", "setting": "[3]; Day 9", "value": 75, "unit": "%"},
      {"measurement": "% of all participants with symptom rating = 1-2", "setting": "[3]; Day 9", "value": 74, "unit": "%"},
      {"measurement": "percentage of participants with severity and frequency symptom ratings of 1-2", "setting": "[3]; Day 9, mild/moderate heartburn group", "value": 82, "unit": "%"},
      {"measurement": "percentage of participants with severity and frequency symptom ratings of 1-2", "setting": "[3]; Day 9, severe heartburn/GERD group", "value": 38, "unit": "%"},
      {"measurement": "percentage of participants with severity and frequency symptom ratings of 1-2", "setting": "[3]; Day 11, mild/moderate heartburn group", "value": 91, "unit": "%"},
      {"measurement": "percentage of participants with severity and frequency symptom ratings of 1-2", "setting": "[3]; Day 11, severe heartburn/GERD group", "value": 72, "unit": "%"},
      {"measurement": "% of participants (every day regimen) with symptom rating = 1-2", "setting": "[3]; Day 14", "value": 86, "unit": "%"},
      {"measurement": "% of all participants with symptom rating = 1-2", "setting": "[3]; Day 14", "value": 89, "unit": "%"},
      {"measurement": "percentage of participants with severity and frequency symptom ratings of 1-2", "setting": "[3]; Day 15, mild/moderate heartburn group", "value": 91, "unit": "%"},
      {"measurement": "percentage of participants with severity and frequency symptom ratings of 1-2", "setting": "[3]; Day 15, severe heartburn/GERD group", "value": 88, "unit": "%"},
      {"measurement": "percentage of participants achieving complete relief of symptoms (rating of 1)", "setting": "[3]; day 2", "value": "about 20%"},
      {"measurement": "percentage of participants achieving complete relief of symptoms (rating of 1)", "setting": "[3]; day 14", "value": 79, "unit": "%"}
    ]},
    {"smiles": "C=C(C)[C@H]1CC=C(C)CC1", "note": "[limonene]", "values": [
      {"measurement": "side effects such as diarrhea and headache", "setting": "[4]", "value": "significantly reduced certain side effects"},
      {"measurement": "severity and frequency of heartburn symptoms", "setting": "[5]", "value": "alleviated permanently"},
      {"measurement": "effect on gastric acid", "setting": "[6]", "value": "neutralizing effect on gastric acid"}
    ]}
  ]
}
